Measurements reported in article PMC7178819, “6,7-Dimethoxy-2-phenethyl-1,2,3,4-tetrahydroisoquinoline amides and corresponding ester isosteres as multidrug resistance reversers” (Journal of Enzyme Inhibition and Medicinal Chemistry, 2020).
Structures can show the parent of a compound that is named as a salt.

Experiments:
P-gp [1] = molecular target: T1, P-gp (Homo sapiens, UniProt P08183); assay: Inhibition of Calcein-AM transport in MDCK-MDR1 cells; format: cell-based; details: Calcein-AM, MDCK-MDR1 cells; mean ± SEM of two experiments
T1 construct: expressed in transfected cells; host or cells: MDCK-MDR1 (Madin-Darby Canine Kidney cells, gift of Prof. P. Borst, NKI-AVL)
Procedure: These experiments were carried out as previously described by Teodori et al. with minor modifications. Each cell line (30 000 cells per well) was seeded into black CulturePlate 96/wells plate with 100 µL medium and allowed to become confluent overnight. 100 µL of test compounds were solubilised in culture medium and added to monolayers, with final concentrations ranging from 1 nM to 100 µM. 96/Wells plate was incubated for 30 min in a humidified atmosphere 5% CO2 at 37 °C. Calcein-AM was added in 100 µL of Phosphate Buffered Saline (PBS) to yield a final concentration of 2.5 µM and plate was incubated for 30 min in a humidified atmosphere 5% CO2 at 37 °C. Each well was washed 3 times with ice cold PBS. Saline buffer was added to each well and the plate was read with Victor3 (PerkinElmer) at excitation and emission wavelengths of 485 and 535 nm, respectively. In these experimental conditions, Calcein cell accumulation in the absence and in the presence of tested compounds was evaluated and fluorescence basal level was estimated with untreated cells. In treated wells the increase of fluorescence with respect to basal level was measured. EC50 values were determined by fitting the fluorescence increase percentage versus log[dose].
The interaction potency between the designed compounds and P-gp was evaluated by measuring the transport inhibition of the pro-fluorescent probe Calcein-AM, that is a P-gp substrate, in a cell line overexpressing P-gp (MDCK-MDR1)[47]. The P-gp interacting profile was further investigated with two other assays: the Apparent Permeability (Papp) determination (BA/AB) in Caco-2 cell monolayer[48]^,[49], and the ATP cell depletion in the MDCK-MDR1 cell line[50]. […] Papp determination measures the ratio between two fluxes: from the basolateral to apical compartments (BA, representative of passive diffusion) and from the apical to basolateral compartments (AB, representative of active transport). […] In the same manner, if (BA/AB) >2, the compound should probably be classified as a substrate.

P-gp [2] = molecular target: T1, P-gp; assay: ATP cell depletion (ATPlite assay) in MDCK-MDR1 cells; format: cell-based; details: Yes/No
Procedure: The MDCK-MDR1 cells were seeded into 96-well microplate in 100 µL of complete medium at a density 20,000 cells per well. The plate was incubated overnight (O/N) in a humidified atmosphere 5% CO2 at 37 °C. The medium was removed and 100 µL of complete medium either alone or containing different concentrations (ranging from 1 to 100 µM) of test compounds was added. The plate was incubated for 2 h in a humidified 5% CO2 atmosphere at 37 °C. 50 µL of mammalian cell lysis solution was added to all wells and the plate shacked for five minutes in an orbital shaker. 50 µL of substrate solution was added to all wells and the plate shacked for five minutes in an orbital shaker. The plate was dark adapted for ten minutes and the luminescence was measured.
(§1) The interaction potency between the designed compounds and P-gp was evaluated by measuring the transport inhibition of the pro-fluorescent probe Calcein-AM, that is a P-gp substrate, in a cell line overexpressing P-gp (MDCK-MDR1)[47]. The P-gp interacting profile was further investigated with two other assays: the Apparent Permeability (Papp) determination (BA/AB) in Caco-2 cell monolayer[48]^,[49], and the ATP cell depletion in the MDCK-MDR1 cell line[50]. Taking into account the results of the combined tests, an interacting compound can be classified as substrate or inhibitor. Papp determination measures the ratio between two fluxes: from the basolateral to apical compartments (BA, representative of passive diffusion) and from the apical to basolateral compartments (AB, representative of active transport). […] In the same manner, if (BA/AB) >2, the compound should probably be classified as a substrate. […] The selectivity of ligands 1–26 was evaluated by detecting their activity towards the other ABC transporters MRP1 and BCRP, by measuring the inhibition of the efflux of Calcein-AM (i.e., also a MRP1 substrate) in cells overexpressing MRP1 (MDCK-MRP1 cells), and the inhibition of the efflux of the fluorescent probe Hoechst 33342 (i.e. a BCRP substrate) in cells overexpressing BCRP (MDCK-BCRP cells), respectively.

[3] = Stability test in phosphate buffer solution (PBS); format: physicochemical; details: 1 µM, 37 °C, up to 120 min
Procedure: (§2) Each sample was prepared adding 10 µL of working solution 1 to 100 µL of tested matrix (PBS or human plasma) in micro centrifuge tubes. The obtained solutions correspond to 1 µM of analyte.
Each set of samples was incubated in triplicate at four different times, 0, 30, 60 and 120 min at 37 °C. Therefore, the degradation profile of each analyte was represented by a batch of 12 samples (4 incubation times × 3 replicates). After the incubation, the samples were added with 300 µL of ISTD solution and centrifuged (room temperature for 5 min at 10,000 rpm). The supernatants were transferred in auto sampler vials and dried under a gentle stream of nitrogen.
(§3) The dried samples were dissolved in 1.0 ml of 10 mM of formic acid in mQ water: acetonitrile 80:20 solution. The obtained sample solutions were analysed by LC-MS/MS methods described in Supplementary material.
Due to the presence of ester or amide groups in the structure of compounds 1–26, a study aimed to evaluate their susceptibility to spontaneous or enzymatic hydrolysis, was planned. For this purpose, a series of experiments were carried out, adding a known amount of analyte in both phosphate buffer solution (PBS) and in human plasma. The samples were analysed by LC-MS/MS method operating in Multiple Reaction Monitoring (MRM) mode[55]. […]

[4] = Apparent permeability (Papp) determination (BA/AB) in Caco-2 cell monolayer; format: in vitro ADME; details: human, Caco-2 monolayer
Procedure: Caco-2 cells were seeded onto a Millicell® assay system (Millipore), where a cell monolayer is set in between a filter cell and a receiver plate, at a density of 10 000 cells/well[46]. The culture medium was replaced every 48 h and the cells kept for 21 days in culture. The Trans Epithelial Electrical Resistance (TEER) of the monolayers was measured daily, before and after the experiment, using an epithelial volt-ohmmeter (Millicell®-ERS). Generally, TEER values greater than 1000 Ω for a 21 days culture, are considered optimal.
After 21 days of Caco-2 cell growth, the medium was removed from filter wells and from the receiver plate, which were filled with fresh HBSS buffer (Invitrogen). This procedure was repeated twice, and the plates were incubated at 37 °C for 30 min. After incubation time, the HBSS buffer was removed and drug solutions and reference compounds were added to the filter well at the concentration of 100 µM, while fresh HBSS was added to the receiver plate. The plates were incubated at 37 °C for 120 min. Afterwards, samples were removed from the apical (filter well) and basolateral (receiver plate) side of the monolayer to measure the permeability.
as §1

[5] = Stability test in human plasma (LC-MS/MS); format: in vitro ADME; details: human, human plasma, 1 µM, 37 °C
Procedure: as §2
After the incubation, the samples were added with 300 µL of ISTD solution and centrifuged (room temperature for 5 min at 10,000 rpm). The supernatants were transferred in auto sampler vials and dried under a gentle stream of nitrogen.
as §3
For this purpose, a series of experiments were carried out, adding a known amount of analyte in both phosphate buffer solution (PBS) and in human plasma. The samples were analysed by LC-MS/MS method operating in Multiple Reaction Monitoring (MRM) mode[55].
The analyte concentration (1 µM) used during the stability tests is generally smaller than the corresponding Michaelis–Menten constant (KM); therefore, the enzymatic degradation rate is described by a first-order kinetic. Then, by plotting the natural logarithm of the quantitative data versus the incubation time, a linear function can be used and its slope represents the degradation rate (k).

MDCK-MDR1 cells = assay: Co-administration assay with doxorubicin (MTT), MDCK-MDR1 cells; format: cell-based, canine; details: 10 µM, MDCK cells overexpressing P-gp
Procedure: The co-administration assay with doxorubicin was performed in MDCK-MDR1, HT29, HT29/DX, A549 and A549/DX cells at 48 h. On day 1, 10,000 cells/well were seeded into 96-well plates in a volume of 100 µL of fresh medium. On day 2, the tested drug was added alone to the cells at different concentrations (ranging from 40 nM to 10 µM). On day 3, the medium was removed and the drug at the same concentrations was added alone and in co-administration with 10 µM doxorubicin to the cells. After the established incubation time with the tested drug, MTT (0.5 mg/mL) was added to each well, and after 3 − 4 h incubation at 37 °C, the supernatant was removed. The formazan crystals were solubilised using 100 µL of DMSO/EtOH (1:1), and the absorbance values at 570 and 630 nm were determined on the microplate reader HTX Synergy (Bio-Tek Instruments).

BCRP = molecular target: T2, BCRP (Homo sapiens, UniProt Q9UNQ0); assay: Inhibition of Hoechst 33342 efflux in MDCK-BCRP cells; format: cell-based; details: Hoechst 33342, MDCK-BCRP cells; NA: not active
T2 construct: expressed in transfected cells; host or cells: MDCK-BCRP (Madin-Darby Canine Kidney cells, gift of Prof. P. Borst, NKI-AVL)
T2 sequence (Q9UNQ0 1-655): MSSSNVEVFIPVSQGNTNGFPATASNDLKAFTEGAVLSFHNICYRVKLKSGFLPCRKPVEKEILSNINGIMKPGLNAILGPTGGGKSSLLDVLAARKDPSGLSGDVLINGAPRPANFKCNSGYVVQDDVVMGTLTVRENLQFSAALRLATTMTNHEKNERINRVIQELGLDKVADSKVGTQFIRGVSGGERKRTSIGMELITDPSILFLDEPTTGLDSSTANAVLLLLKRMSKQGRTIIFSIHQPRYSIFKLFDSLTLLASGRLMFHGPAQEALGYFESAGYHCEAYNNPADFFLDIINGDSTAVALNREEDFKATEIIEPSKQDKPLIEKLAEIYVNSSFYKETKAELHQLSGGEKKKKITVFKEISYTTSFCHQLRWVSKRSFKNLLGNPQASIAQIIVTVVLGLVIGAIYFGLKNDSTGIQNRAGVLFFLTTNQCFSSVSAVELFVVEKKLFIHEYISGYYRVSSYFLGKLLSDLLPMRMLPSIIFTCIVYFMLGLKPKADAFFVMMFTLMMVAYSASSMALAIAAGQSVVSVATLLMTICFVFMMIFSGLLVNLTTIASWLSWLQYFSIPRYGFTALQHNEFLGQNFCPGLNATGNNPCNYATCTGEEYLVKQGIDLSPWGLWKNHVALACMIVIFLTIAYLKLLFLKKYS
Procedure: These experiments were carried out as described by Teodori et al.[34]. Each cell line (30 000 cells per well) was seeded into black CulturePlate 96/wells plate with 100 µL medium and allowed to become confluent overnight. 100 µL of test compounds were solubilised in culture medium and added to monolayers, with final concentrations ranging from 1 to 100 µM. 96/Wells plate was incubated for 30 min in a humidified atmosphere 5% CO2 at 37 °C. Hoechst 33342 was added in 100 µl of phosphate-buffered saline (PBS) to yield a final concentration of 8 µM and plate was incubated for 30 min in a humidified atmosphere 5% CO2 at 37 °C. The supernatants were drained, and the cells were fixed for 20 min under light protection using 100 µL per well of a 4% PFA solution. Each well was washed three times with ice cold PBS. Saline buffer was added to each well and the plate was read with Victor3 (PerkinElmer) at excitation and emission wavelengths of 340/35 nm and 485/20 nm, respectively. In these experimental conditions, Hoechst 33342 accumulation in the absence and in the presence of tested compounds was evaluated and fluorescence basal level was estimated with untreated cells. In treated wells, the increase of fluorescence with respect to basal level was measured. EC50 values were determined by fitting the fluorescence increase percentage versus log[dose]. […]

T1 sequence (P08183 whole entry): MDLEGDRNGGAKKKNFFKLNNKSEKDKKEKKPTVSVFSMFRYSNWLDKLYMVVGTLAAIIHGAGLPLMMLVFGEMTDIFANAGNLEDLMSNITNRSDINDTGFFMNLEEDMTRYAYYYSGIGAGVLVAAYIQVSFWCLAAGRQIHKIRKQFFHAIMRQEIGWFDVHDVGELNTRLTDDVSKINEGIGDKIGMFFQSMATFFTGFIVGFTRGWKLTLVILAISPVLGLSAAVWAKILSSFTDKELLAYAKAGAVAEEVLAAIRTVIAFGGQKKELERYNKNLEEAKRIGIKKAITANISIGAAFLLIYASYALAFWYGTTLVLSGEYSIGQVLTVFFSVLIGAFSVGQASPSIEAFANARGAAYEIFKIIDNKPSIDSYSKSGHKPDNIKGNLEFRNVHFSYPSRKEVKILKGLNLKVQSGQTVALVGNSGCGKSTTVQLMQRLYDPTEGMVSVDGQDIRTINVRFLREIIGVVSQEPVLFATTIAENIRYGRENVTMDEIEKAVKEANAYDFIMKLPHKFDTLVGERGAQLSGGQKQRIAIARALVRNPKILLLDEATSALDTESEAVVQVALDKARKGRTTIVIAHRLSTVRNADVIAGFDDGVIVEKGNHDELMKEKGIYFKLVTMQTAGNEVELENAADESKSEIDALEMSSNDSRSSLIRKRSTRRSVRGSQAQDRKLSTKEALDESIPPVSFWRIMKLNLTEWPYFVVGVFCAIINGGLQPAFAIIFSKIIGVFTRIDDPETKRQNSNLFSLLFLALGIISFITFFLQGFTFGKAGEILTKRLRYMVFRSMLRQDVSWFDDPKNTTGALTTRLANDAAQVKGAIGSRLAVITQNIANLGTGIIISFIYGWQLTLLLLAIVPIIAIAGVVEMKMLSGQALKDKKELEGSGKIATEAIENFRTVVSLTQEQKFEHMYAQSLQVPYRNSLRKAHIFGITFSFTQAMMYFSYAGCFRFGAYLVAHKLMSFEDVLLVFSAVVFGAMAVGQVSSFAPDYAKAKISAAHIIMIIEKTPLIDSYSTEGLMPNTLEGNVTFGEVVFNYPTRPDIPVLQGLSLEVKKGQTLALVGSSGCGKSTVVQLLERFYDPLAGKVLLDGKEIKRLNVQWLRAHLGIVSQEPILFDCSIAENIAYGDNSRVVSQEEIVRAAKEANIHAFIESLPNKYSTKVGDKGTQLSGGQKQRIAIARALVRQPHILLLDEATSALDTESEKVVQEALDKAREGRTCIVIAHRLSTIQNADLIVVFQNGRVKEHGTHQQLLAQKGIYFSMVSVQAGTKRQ

In the case of `COc1cncc(C(=O)Oc2ccc(CCN3CCc4cc(OC)c(OC)cc4C3)cc2)n1` [Compound 25, 4–(2-(6,7-Dimethoxy-3,4-dihydroisoquinolin-2(1H)-yl)ethyl)phenyl 6-methoxypyrazine-2-carboxylate], the EC50 (P-gp [1]) is reported as 220 ± 40 nM, the ATP cell depletion (P-gp [2]) is reported as “No” and the “stability in PBS” value [3] is reported as “unmodified”. For the same compound, the efflux ratio at 120 min, 100 µM [4] was 4.7 and the half-life at 1 µM [5] was roughly 6 min.

With `COc1cccc2c1C(=O)c1c(O)c3c(c(O)c1C2=O)C[C@@](O)(C(=O)CO)C[C@@H]3O[C@H]1C[C@H](N)[C@H](O)[C@H](C)O1` [doxorubicin, reference compound] the “cytotoxicity of doxorubicin alone” value (MDCK-MDR1 cells) was “did not show cytotoxicity”.

With `COc1cc2c(cc1OC)CN(CCc1ccc(NC(=O)c3cc(OC)c(OC)cc3NC(=O)c3cnc4ccccc4c3)cc1)CC2` [tariquidar, reference compound] the EC50 (P-gp [1]) was 44 ± 1 nM, the EC50 (BCRP) was 10 ± 5 nM and the ATP cell depletion (P-gp [2]) was “Yes^f”. The efflux ratio at 120 min, 100 µM [4] was greater than 20.

In the case of `COc1ccc2nccc(C(=O)Nc3ccc(CCN4CCc5cc(OC)c(OC)cc5C4)cc3)c2c1` (as salt: hydrochloride) [Compound 13, N-(4–(2-(6,7-dimethoxy-3,4-dihydroisoquinolin-2(1H)-yl)ethyl)phenyl)-6-methoxyquinoline-4-carboxamide], the melting point is reported as 228 to 230 °C.

`COc1cc2c(cc1OC)CN(CCc1ccc(NC(=O)c3c(OC)ccc4ccccc34)cc1)CC2` (as salt: hydrochloride) [Compound 7, N-(4–(2-(6,7-dimethoxy-3,4-dihydroisoquinolin-2(1H)-yl)ethyl)phenyl)-2-methoxy-1-naphthamide] gave a melting point of 239 to 241 °C.

`COc1cc2c(cc1OC)CN(CCc1ccc(NC(=O)c3c(OC)c(OC)cc4ccccc34)cc1)CC2` (as salt: hydrochloride) [Compound 8, N-(4–(2-(6,7-dimethoxy-3,4-dihydroisoquinolin-2(1H)-yl)ethyl)phenyl)-2,3-dimethoxy-1-naphthamide] showed a melting point of 245 to 248 °C.

Compound `COc1cc2c(cc1OC)CN(CCc1ccc(NC(=O)c3c(OC)cccc3OC)cc1)CC2` (as salt: hydrochloride) [Compound 4, N-(4–(2-(6,7-dimethoxy-3,4-dihydroisoquinolin-2(1H)-yl)ethyl)phenyl)-2,6-dimethoxybenzamide] has a melting point of 212 to 214 °C.
